From article PMC6402191 (Clinical and Translational Science, 2017)
Values joined by “and” are separate entries in the source; they are usually repeats but may differ in a detail not shown here. Equal values may be shown once. “Also recorded” adds a separate entry of the source.

Tests used:
OAT3 = biological target: T1, OAT3 (Homo sapiens, UniProt Q8TCC7); experiment: PBPK DDI simulations of baricitinib with OAT3 inhibitors
T1 sequence (Q8TCC7 1-542): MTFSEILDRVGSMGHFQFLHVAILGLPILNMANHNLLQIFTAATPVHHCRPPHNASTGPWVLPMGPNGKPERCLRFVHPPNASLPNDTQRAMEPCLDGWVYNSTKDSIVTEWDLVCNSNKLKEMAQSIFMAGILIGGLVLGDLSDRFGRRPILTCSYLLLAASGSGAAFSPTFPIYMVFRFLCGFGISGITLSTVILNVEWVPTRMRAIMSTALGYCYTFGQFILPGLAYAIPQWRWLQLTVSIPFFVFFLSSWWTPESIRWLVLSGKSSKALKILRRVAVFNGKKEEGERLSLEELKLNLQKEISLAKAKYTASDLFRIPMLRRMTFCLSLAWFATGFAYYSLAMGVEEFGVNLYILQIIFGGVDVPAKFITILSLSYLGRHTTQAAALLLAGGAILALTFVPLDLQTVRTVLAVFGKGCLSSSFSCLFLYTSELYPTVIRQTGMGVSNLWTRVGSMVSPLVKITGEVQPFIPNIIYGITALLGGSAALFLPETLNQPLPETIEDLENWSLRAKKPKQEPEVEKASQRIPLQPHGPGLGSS

OCT2 = biological target: T2, OCT2 (Homo sapiens, UniProt O15244); experiment: Baricitinib substrate study in OCT2-transfected HEK-PEAK cells; type: in vitro ADME
T2 sequence (O15244 1-555): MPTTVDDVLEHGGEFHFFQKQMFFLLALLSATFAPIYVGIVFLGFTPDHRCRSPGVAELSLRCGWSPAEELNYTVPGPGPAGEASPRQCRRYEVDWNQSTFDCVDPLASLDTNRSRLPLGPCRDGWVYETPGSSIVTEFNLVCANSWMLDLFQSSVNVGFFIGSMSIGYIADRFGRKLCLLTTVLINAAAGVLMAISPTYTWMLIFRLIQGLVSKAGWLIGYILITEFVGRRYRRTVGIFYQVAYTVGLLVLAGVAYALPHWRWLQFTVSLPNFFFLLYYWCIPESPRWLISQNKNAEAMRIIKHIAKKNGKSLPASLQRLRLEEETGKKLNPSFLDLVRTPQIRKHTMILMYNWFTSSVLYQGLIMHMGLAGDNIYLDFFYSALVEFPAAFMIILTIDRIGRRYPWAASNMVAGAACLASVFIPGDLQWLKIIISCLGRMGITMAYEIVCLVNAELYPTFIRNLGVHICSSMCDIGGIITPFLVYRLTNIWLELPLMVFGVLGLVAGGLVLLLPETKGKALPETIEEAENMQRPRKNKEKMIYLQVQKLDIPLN

OCT1 = biological target: T3, OCT1 (Homo sapiens, UniProt O15245); experiment: Baricitinib substrate study in OCT1-transfected HEK-PEAK cells; type: in vitro ADME
T3 sequence (O15245 1-554): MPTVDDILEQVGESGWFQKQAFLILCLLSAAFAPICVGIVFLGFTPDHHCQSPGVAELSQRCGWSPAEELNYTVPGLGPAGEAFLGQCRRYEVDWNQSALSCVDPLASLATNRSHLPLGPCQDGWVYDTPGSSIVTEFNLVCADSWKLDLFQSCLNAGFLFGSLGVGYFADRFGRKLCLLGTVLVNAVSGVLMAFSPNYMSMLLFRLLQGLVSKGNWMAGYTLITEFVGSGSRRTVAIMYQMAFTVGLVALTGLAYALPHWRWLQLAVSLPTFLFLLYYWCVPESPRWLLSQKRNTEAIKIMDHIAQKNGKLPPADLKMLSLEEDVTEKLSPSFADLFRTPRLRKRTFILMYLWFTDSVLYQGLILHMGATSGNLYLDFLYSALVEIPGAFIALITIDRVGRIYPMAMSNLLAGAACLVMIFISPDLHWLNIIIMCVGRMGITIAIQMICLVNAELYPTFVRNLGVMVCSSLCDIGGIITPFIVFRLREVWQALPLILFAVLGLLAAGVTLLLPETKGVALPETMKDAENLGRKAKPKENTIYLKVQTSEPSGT

[1] = Pharmacokinetic input parameters of the PBPK models; type: in vivo, human; conditions: fitted to match clinical data
[2] = Clinical baricitinib-probenecid DDI study in healthy subjects; type: in vivo, human
P-gp = P-gp (Homo sapiens, UniProt P08183); experiment: Bidirectional transport of baricitinib in MDCK-MDR1 cells; type: in vitro ADME
Sequence of P-gp (P08183 whole entry): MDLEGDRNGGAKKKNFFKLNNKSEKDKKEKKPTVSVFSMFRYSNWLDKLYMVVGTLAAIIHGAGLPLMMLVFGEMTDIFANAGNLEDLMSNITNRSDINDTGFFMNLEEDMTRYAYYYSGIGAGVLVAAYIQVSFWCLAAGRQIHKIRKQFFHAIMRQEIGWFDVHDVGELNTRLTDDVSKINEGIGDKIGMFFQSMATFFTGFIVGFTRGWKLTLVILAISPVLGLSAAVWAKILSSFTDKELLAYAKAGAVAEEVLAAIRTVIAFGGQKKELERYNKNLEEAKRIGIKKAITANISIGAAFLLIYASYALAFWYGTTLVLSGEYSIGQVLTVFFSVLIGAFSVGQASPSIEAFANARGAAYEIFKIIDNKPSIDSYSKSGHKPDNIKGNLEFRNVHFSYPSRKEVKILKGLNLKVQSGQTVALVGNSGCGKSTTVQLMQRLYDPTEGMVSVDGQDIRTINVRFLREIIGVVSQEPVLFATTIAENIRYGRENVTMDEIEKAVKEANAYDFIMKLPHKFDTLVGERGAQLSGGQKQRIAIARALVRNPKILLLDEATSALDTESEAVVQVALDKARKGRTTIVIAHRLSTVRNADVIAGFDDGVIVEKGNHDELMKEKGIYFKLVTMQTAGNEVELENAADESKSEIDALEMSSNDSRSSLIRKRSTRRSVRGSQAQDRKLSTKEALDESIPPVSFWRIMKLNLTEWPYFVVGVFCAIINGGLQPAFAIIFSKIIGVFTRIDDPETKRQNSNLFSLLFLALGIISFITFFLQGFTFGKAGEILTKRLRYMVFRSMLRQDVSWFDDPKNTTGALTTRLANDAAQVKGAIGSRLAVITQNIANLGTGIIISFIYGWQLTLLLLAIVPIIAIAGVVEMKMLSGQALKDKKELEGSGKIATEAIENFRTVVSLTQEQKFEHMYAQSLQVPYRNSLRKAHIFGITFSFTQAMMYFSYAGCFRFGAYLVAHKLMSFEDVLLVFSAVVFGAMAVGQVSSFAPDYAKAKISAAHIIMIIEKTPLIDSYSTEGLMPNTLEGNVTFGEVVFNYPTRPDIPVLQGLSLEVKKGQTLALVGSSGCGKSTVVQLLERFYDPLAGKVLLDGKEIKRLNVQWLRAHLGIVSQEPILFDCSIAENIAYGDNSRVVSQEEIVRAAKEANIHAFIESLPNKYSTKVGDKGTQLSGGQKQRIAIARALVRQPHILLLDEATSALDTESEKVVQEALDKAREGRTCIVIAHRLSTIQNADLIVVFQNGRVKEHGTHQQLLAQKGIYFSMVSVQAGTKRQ

OAT1 = biological target: T4, OAT1 (Homo sapiens, UniProt Q4U2R8); experiment: Baricitinib substrate study in OAT1-transfected HEK-PEAK cells; type: in vitro ADME
T4 sequence (Q4U2R8 1-563): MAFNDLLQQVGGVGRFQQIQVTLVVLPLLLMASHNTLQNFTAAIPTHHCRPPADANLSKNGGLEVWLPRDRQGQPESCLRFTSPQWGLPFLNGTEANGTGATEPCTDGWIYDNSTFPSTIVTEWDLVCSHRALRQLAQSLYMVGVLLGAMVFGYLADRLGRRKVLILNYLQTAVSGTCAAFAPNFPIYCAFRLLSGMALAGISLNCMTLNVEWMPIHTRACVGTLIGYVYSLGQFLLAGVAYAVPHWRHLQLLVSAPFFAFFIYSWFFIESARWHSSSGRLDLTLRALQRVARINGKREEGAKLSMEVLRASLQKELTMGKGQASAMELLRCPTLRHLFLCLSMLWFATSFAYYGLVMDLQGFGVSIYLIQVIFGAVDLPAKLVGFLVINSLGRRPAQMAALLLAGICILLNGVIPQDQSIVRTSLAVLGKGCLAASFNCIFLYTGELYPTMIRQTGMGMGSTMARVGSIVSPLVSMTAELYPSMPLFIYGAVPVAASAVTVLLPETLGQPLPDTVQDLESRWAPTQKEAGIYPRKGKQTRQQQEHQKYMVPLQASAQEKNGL

[3] = observed, listed as baricitinib

Q: For `CCS(=O)(=O)N1CC(CC#N)(n2cc(-c3ncnc4[nH]ccc34)cn2)C1` [Baricitinib], which “Observed/Predicted AUC ratio +/- probenecid” value (OAT3) is on record?
A: 1.0

Q: And the “Observed/Predicted Cmax ratio +/- probenecid” value (OAT3)?
A: 0.9

Q: What about the OCT2 substrate (OCT2) of the same compound?
A: not a substrate

Q: And the OCT1 substrate (OCT1)?
A: not a substrate

Q: And the “ka (first-order absorption rate constant)” value [1]?
A: 1.2 h^‐1

Q: And the “Ae(0‐48), arithmetic mean (SD)” value ([2]; 4 mg baricitinib + probenecid)?
A: 1.57 (0.191) mg

Q: What about the “CL/F, geometric mean (CV)” value ([2]; 4 mg baricitinib + probenecid) of the same compound?
A: 8.33 (14) L/h

Q: What about the “Ae(0‐48), arithmetic mean (SD)” value ([2]; 4 mg baricitinib only) of the same compound?
A: 2.60 (0.399) mg

Q: What about the “CL/F, geometric mean (CV)” value ([2]; 4 mg baricitinib only) of the same compound?
A: 16.9 (22) L/h

Q: And the tolerability ([2]; healthy subjects, all drug-related treatment-emergent AEs mild)?
A: well tolerated

Q: What about the “increase of half-life in the presence of probenecid” value ([2]; human, in vivo) of the same compound?
A: 63%

Q: And the AUC ([2]; human, plasma, oral, 4 mg)?
A: 236 ng·h/mL

Q: What about the Cmax ([2]; human, plasma, oral, 4 mg) of the same compound?
A: 36.2 ng/mL

Q: And the Tmax ([2]; human, plasma, oral, 4 mg)?
A: 1 h

Q: What about the half-life ([2]; human, plasma, oral, 4 mg) of the same compound?
A: 437 min

Q: What about the CL renal ([2]; human, urine and plasma, oral, 4 mg) of the same compound?
A: 183 mL/min

Q: What about the “AUC(0‐∞) ratio of geometric LS means, baricitinib + probenecid : baricitinib only (90% CI)” value ([2]; observed) of the same compound?
A: 2.03 (1.91, 2.16) and 2.03(1.91‐2.16)

Q: And the “CLr ratio of geometric LS means, baricitinib + probenecid : baricitinib only (90% CI)” value ([2]; observed)?
A: 0.313 (0.289, 0.339)

Q: What about the “Cmax ratio of geometric LS means, baricitinib + probenecid : baricitinib only (90% CI)” value ([2]; observed) of the same compound?
A: 1.03 (0.940, 1.13)

Q: What about the “AUC(0‐∞) ratio of geometric LS means, baricitinib + probenecid : baricitinib only (90% CI)” value [2, 3] of the same compound?
A: twofold; also recorded: doubled

Q: What about the “Cmax ratio of geometric LS means, baricitinib + probenecid : baricitinib only (90% CI)” value [2, 3] of the same compound?
A: 1.03

Q: And the P-gp substrate (P-gp)?
A: P‐gp substrate

Q: And the Papp at 5 μM (P-gp; dog, MDCK)?
A: 6.6 ×10⁻⁶ cm/s

Q: And the Papp A→B at 5 µM (P-gp; dog, MDCK-MDR1)?
A: 0.9 ×10⁻⁶ cm/s

Q: What about the Papp B→A at 5 µM (P-gp; dog, MDCK-MDR1) of the same compound?
A: 35.2 ×10⁻⁶ cm/s

Q: What about the OAT1 substrate (OAT1) of the same compound?
A: not a substrate
